The target of the assay is T1, TGF R1 kinase (Homo sapiens, UniProt P36897).
T1 sequence (P36897 34-503): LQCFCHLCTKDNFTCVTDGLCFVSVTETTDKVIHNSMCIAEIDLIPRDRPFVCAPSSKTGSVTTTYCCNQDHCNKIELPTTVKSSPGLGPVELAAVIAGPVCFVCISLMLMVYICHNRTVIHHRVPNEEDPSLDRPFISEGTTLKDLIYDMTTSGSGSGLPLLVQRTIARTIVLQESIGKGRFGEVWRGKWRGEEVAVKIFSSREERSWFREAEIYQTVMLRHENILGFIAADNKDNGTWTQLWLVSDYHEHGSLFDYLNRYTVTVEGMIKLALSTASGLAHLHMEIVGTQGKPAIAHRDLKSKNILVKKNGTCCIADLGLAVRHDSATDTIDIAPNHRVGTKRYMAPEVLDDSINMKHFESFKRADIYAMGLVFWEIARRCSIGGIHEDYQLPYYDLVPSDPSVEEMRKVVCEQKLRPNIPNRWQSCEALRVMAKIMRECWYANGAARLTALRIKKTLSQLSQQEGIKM
Description: TGF-β inhibition assay: phosphorylation of the substrate casein by TGF R1 kinase. The format is biochemical. The note with it: table names no assay; casein assay of Example 2: 2.5 μM ATP, 100 μM casein, 6.4 nM TGF R1 kinase. The protocol: Invention compounds were tested for their abilities to inhibit the phosphorylation of the substrate casein. The assay was conducted as follows: Compound dilutions and reagents were prepared fresh daily. Compounds were diluted from DMSO stock solutions to 2 times the desired assay concentration, keeping final DMSO concentration in the assay less than or equal to 1%. TGF RI kinase was diluted to 4 times the desired assay concentration in buffer and DTT. ATP and casein were diluted into 4× reaction buffer, and gamma-^32P-ATP was added at 50 μCi/mL.
The assay was performed by adding 10 μl of the enzyme to 20 μl of the compound solution. The reaction was initiated by the addition of 10 μl of the casein/ATP mix. Final assay conditions included 2.5 μM ATP, 100 μM casein, 6.4 nM TGF R1 kinase, and […] in 20 mM Tris buffer, pH 7.5. The reactions were incubated at room temperature for 45 minutes. The reactions were then stopped by transferring 23 μl of reaction mixture onto a phosphocellulose 96-well filter plate, which had been pre-wetted with 15 μl of 0.25M H3PO4 per well. After 5 minutes, the wells were washed 4× with 75 mM H3PO4 and once with 95% ethanol. The plate was dried, scintillation cocktail was added to each well, and the wells were counted in a Packard TopCount microplate scintillation counter. The ability of a compound to inhibit the enzyme was determined by comparing the counts obtained in the presence of the compound to those of the positive control (in the absence of compound) and the negative control (in the absence of enzyme).
In both of the assays referenced above, IC50 values can be determined with curve-fitting plots available with common software packages. Approximate IC50 values can be calculated using formula: IC50 (app)=A×i/(1−A) where A=fractional activity and i=total inhibitor concentration.

As a reminder, the IC50 is the concentration that inhibits the measured activity by half. Lower therefore signals greater potency in that assay. Take `c1ccc(-c2nc(Nc3ccncc3)c3cc[nH]c3n2)cc1` [Compound 2, 4-(4-aminopyridyl)-2-phenyl pyrollo[2,3d]pyrimidine]: the IC50 came to 9400 nM.

Take `Cc1noc2nc(-c3cccc(Cl)c3)nc(Nc3ccncc3)c12` [Compound 3]: the IC50 was 780 nM.

The compound `Cc1noc2nc(-c3cc(Br)ccc3F)nc(Nc3ccncc3)c12` [Compound 6] had an IC50 of 270 nM.

With `CCc1noc2nc(-c3cccc(Cl)c3)nc(Nc3ccncc3)c12` [Compound 7], the IC50 is 5070 nM.

As to `Cc1noc2nc(-c3cc(Cl)ccc3F)nc(Nc3ccncc3)c12` [Compound 8], the IC50 was found to be 267 nM.

Compound `Cc1noc2nc(-c3cccc(I)c3)nc(Nc3ccncc3)c12` [Compound 10] returned an IC50 of 2440 nM.

As for `CCc1noc2nc(-c3cc(Cl)ccc3F)nc(Nc3ccncc3)c12` [Compound 11], the IC50 is 1350 nM.

Regarding `Cc1noc2nc(-c3ccccc3F)nc(Nc3ccncc3)c12` [Compound 12], the IC50 worked out at 1380 nM.

`Cc1noc2nc(-c3ccccc3Cl)nc(Nc3ccncc3)c12` [Compound 14] registered an IC50 of 12800 nM.

In turn, `Cc1noc2nc(-c3cccc(Br)c3)nc(Nc3ccncc3)c12` [Compound 15] returned an IC50 of 1020 nM. Against the preceding compound, the IC50 is about 13-fold lower.

Regarding `Cc1noc2nc(-c3ccc(Cl)cc3)nc(Nc3ccncc3)c12` [Compound 17], the IC50 was 4650 nM.

The compound `Cc1cnccc1Nc1nc(-c2cc(Cl)ccc2F)nc2c1CCC2` [Compound 20] returned an IC50 of 93 nM. This IC50 is about 50-fold lower than that of the compound before.

In turn, `NC(=O)c1cnccc1Nc1nc(-c2cc(Cl)ccc2F)nc2c1CCC2` [Compound 21] registered an IC50 of 53 nM.

Consider `Cc1cnccc1Nc1nc(-c2cc(Cl)ccc2F)nc2c1CNCC2` [Compound 22], for which the IC50 came out at 6270 nM.

In turn, `Cc1cnccc1Nc1nc(-c2cc(Cl)ccc2F)nc2c1CCNC2` [Compound 23] displayed a half-inhibitory concentration (IC50) of 1180 nM. This IC50 is about 5.3-fold lower than that of the compound before.

In turn, `Cc1cnccc1Nc1nc(-c2cc(Cl)ccc2F)nc2c1CN(Cc1ccccc1)CC2` [Compound 30] yielded an IC50 of 16100 nM. Compared with the last compound, the IC50 is about 14-fold higher.

Regarding `CCOC(=O)c1cnccc1Nc1nc(-c2cc(Cl)ccc2F)nc2c1CCC2` [Compound 32], the midpoint of inhibition, the IC50, lay at 6500 nM.

Take `Cc1cnccc1Nc1nc(-c2cc(Cl)ccc2F)nc2c1COC2` [Compound 33, [2-(5-Chloro-2-fluorophenyl)-5,7-dihydrofuro[3,4-d]pyrimidin-4-yl]-(3-methyl-pyridin-4-yl)-amine]: the half-maximal inhibitory concentration (IC50) came out at 3100 nM.

Consider `NC(=O)c1cnccc1Nc1nc(-c2cc(Cl)ccc2F)nc2c1COC2` [Compound 34, 4-[2-(5-Chloro-2-fluoro-phenyl)-5,7-dihydro-furo[3,4-d]pyrimidin-4-ylamino]-nicotinic amide], for which the IC50 came to 2250 nM. The IC50 values of the last two compounds are within 1.5-fold of each other.

With `Fc1ccc(Cl)cc1-c1nc2c(c(Nc3ccncc3C(F)(F)F)n1)CCC2` [Compound 36], the IC50 turned out to be 170 nM.

For the compound `O=C(c1cnccc1Nc1nc(-c2cc(Cl)ccc2F)nc2c1CCC2)N1CCCC1` [Compound 37], half-maximal inhibition (IC50) was put at 2240 nM.

Regarding `Cc1cnccc1Nc1nc(-c2cc(Cl)ccc2F)nc2c1CCCC2` [Compound 38, [2-(5-Chloro-2-fluorophenyl)-5,6,7,8-tetrahydroquinazolin-4-yl]-(3-methylpyridin-4-yl)-amine], half-maximal inhibition (IC50) required 252 nM.

`CNC(=O)c1cnccc1Nc1nc(-c2cc(Cl)ccc2F)nc2c1CCCC2` [Compound 40] returned an IC50 of 50.1 nM.

As to `O=C(NC1CC1)c1cnccc1Nc1nc(-c2cc(Cl)ccc2F)nc2c1CCC2` [Compound 41], the IC50 was found to be 1350 nM.

Turning to `O=C(NCC1CC1)c1cnccc1Nc1nc(-c2cc(Cl)ccc2F)nc2c1CCC2` [Compound 42], it took 1330 nM to reach half-maximal inhibition (IC50).

`Cc1cnccc1Nc1nc(-c2cc(Cl)ccc2F)nc2c1C(C)CC2` (stereo not shown) [Compound 43, [2-(5-Chloro-2-fluorophenyl)-5-methyl-6,7-dihydro-5H-cyclopentapyrimidin-4-yl]-(3-methyl-pyridin-4-yl)-amine] showed an IC50 of 104 nM.

`CNC(=O)c1cnccc1Nc1nc(-c2cc(Cl)ccc2F)nc2c1OCC2` [Compound 44, 4-[2-(5-Chloro-2-fluorophenyl)-6,7-dihydrofuro[3,2-d]pyrimidin-4-ylamino]-N-methyl nicotinamide] registered a half-inhibitory concentration (IC50) of 148 nM.

Compound `O=C(NC1CC1)c1cnccc1Nc1nc(-c2cc(Cl)ccc2F)nc2c1CCCC2` [Compound 45, 4-[2-(5-Chloro-2-fluorophenyl)-5,6,7,8-tetrahydroquinazolin-4-ylamino]-N-cyclopropyl nicotinamide] displayed an IC50 of 683 nM.

The compound `CC1CCc2nc(-c3cc(Cl)ccc3F)nc(Nc3ccncc3C(N)=O)c21` (stereo not shown) [Compound 46] returned an IC50 of 13 nM.

For the compound `CNC(=O)c1cnccc1Nc1nc(-c2cc(Cl)ccc2F)nc2c1C(C)CC2` (stereo not shown) [Compound 47, 4-[2-(5-Chloro-2-fluorophenyl)-5-methyl-6,7-dihydro-5H-cyclopentapyrimidin-4-ylamino]-N-methyl-nicotinamide], the IC50 is 14.5 nM. This IC50 and that of the compound before are within 1.5-fold of each other.

With `CCOC(=O)c1cnccc1Nc1nc(-c2cc(Cl)ccc2F)nc2c1C(C)CC2` (stereo not shown) [Compound 48, 4-[2-(5-Chloro-2-fluoro-phenyl)-5-methyl-6,7-dihydro-5H-cyclopentapyrimidin-4-ylamino]-nicotinic acid ethyl ester], inhibition was half-maximal at 262 nM (IC50).

In the case of `CC1CCc2nc(-c3cc(Cl)ccc3F)nc(Nc3ccncc3C(=O)O)c21` (stereo not shown) [Compound 49, 4-[2-(5-Chloro-2-fluorophenyl)-5-methyl-6,7-dihydro-5H-cyclopentapyrimidin-4-ylamino]-nicotinic acid], the concentration for half-maximal inhibition (IC50) was determined as 85.3 nM.

Compound `O=C(O)c1cnccc1Nc1nc(-c2cc(Cl)ccc2F)nc2c1CCCC2` [Compound 50, 4-[2-(5-Chloro-2-fluorophenyl)-5,6,7,8-tetrahydroquinazolin-4-ylamino]-nicotinic acid] yielded a half-inhibitory concentration (IC50) of 4080 nM. This IC50 is about 48-fold higher than that of the compound before.

Compound `C[C@H](O)CNC(=O)c1cnccc1Nc1nc(-c2cc(Cl)ccc2F)nc2c1CCC2` [Compound 52] had an IC50 of 238 nM.

With `C[C@H](O)CNC(=O)c1cnccc1Nc1nc(-c2cc(Cl)ccc2F)nc2c1CCC2` [Compound 53], the IC50 was found to be 417 nM. Compared with the last compound, the IC50 is about 1.8-fold higher.

`O=C(NO)c1cnccc1Nc1nc(-c2cc(Cl)ccc2F)nc2c1CCC2` [Compound 54] showed an IC50 of 486 nM.

`C[C@@H](O)CNC(=O)c1cnccc1Nc1nc(-c2cc(Cl)ccc2F)nc2c1CCC2` [Compound 55] displayed an IC50 of 639 nM.

In turn, `CNCCNC(=O)c1cnccc1Nc1nc(-c2cc(Cl)ccc2F)nc2c1CCC2` [Compound 56] gave an IC50 of 365 nM.

`C[C@H](O)CNC(=O)c1cnccc1Nc1nc(-c2cc(Cl)ccc2F)nc2c1CCCC2` [Compound 57]: it took 436 nM to reach half-maximal inhibition (IC50).

With `NNC(=O)c1cnccc1Nc1nc(-c2cc(Cl)ccc2F)nc2c1CCC2` [Compound 58], the half-inhibitory concentration (IC50) is 62.6 nM.

The compound `CCN(CC)CCNC(=O)c1cnccc1Nc1nc(-c2cc(Cl)ccc2F)nc2c1CCCC2` [Compound 59] came in with an IC50 of 77.9 nM.

For `Cc1cnccc1Nc1nc(-c2cc(Cl)ccc2F)nc2c1CC(C)(C)C2` [Compound 60, [2-(5-Chloro-2-fluoro-phenyl)-6,6-dimethyl-6.7-dihydro-5H-cyclopentapyrimidin-4-yl]-(3-methyl-pyridin-4-yl)-amine], 2420 nM corresponded to half-maximal inhibition (IC50). Against the preceding compound, the IC50 is about 31-fold higher.

With `CC1(C)Cc2nc(-c3cc(Cl)ccc3F)nc(Nc3ccncc3C(F)(F)F)c2C1` [Compound 61], the IC50 was 6250 nM.

Values taken from patent US7223766B2, “Bi-cyclic pyrimidine inhibitors of TGFβ” (Scios, Inc., priority 2003, dated 2007).
